# Data published in patent publication US20210078988A1, “MODULATORS OF INDOLEAMINE 2,3-DIOXYGENASE” (GLAXOSMITHKLINE INTELLECTUAL PROPERTY DEVELOPMENT LIMITED, priority 2017, published 2021).
# Target: T1, indoleamine 2, 3-dioxygenase (IDO1) (Homo sapiens, UniProt P14902)
# T1 construct: human peripheral blood mononuclear cells (PBMC) (PB003F; host or cells: human PBMC stimulated with IFN-gamma and LPS
# Test: PBMC IDO1 assay (kynurenine detection via mass spectrometry)
# Assay type: cell-based
# Settings: human PBMC stimulated with IFN-γ and LPS, 2 days, kynurenine by mass spectrometry; read-out: IDO1 PBMC pIC50 (converted)
# Experimental: Compounds of the present invention were tested via high-throughput cellular assays utilizing detection of kynurenine via mass spectrometry and cytotoxicity as end-points. For the mass spectrometry and cytotoxicity assays, human peripheral blood mononuclear cells (PBMC) (PB003F; AIICells®, Alameda, Calif.) were stimulated with human interferon-γ (IFN-γ) (Sigma-Aldrich Corporation, St. Louis, Mo.) and lipopolysaccharide from Salmonella minnesota (LPS) (Invivogen, San Diego, Calif.) to induce the expression of indoleamine 2, 3-dioxygenase (IDO1). Compounds with IDO1 inhibitory properties decreased the amount of kynurenine produced by the cells via the tryptophan catabolic pathway. Cellular toxicity due to the effect of compound treatment was measured using CellTiter-Glo® reagent (CTG) (Promega Corporation, Madison, Wis.), which is based on luminescent detection of ATP, an indicator of metabolically active cells.
# In preparation for the assays, test compounds were serially diluted 3-fold in DMSO from a typical top concentration of 5 mM and plated at 0.5 μL in 384-well, polystyrene, clear bottom, tissue culture treated plates with lids (Greiner Bio-One, Kremsmunster, Austria) to generate 11-point dose response curves. Low control wells (0% kynurenine or 100% cytotoxicity) contained either 0.5 μL of DMSO in the presence of unstimulated (-IFN-γ/-LPS) PBMCs for the mass spectrometry assay or 0.5 μL of DMSO in the absence of cells for the cytotoxicity assay, and high control wells (100% kynurenine or 0% cytotoxicity) contained 0.5 μL of DMSO in the presence of stimulated (+IFN-γ/+LPS) PBMCs for both the mass spectrometry and cytotoxicity assays.
# Frozen stocks of PBMCs were washed and recovered in RPMI 1640 medium (Thermo Fisher Scientific, Inc., Waltham, Mass.) supplemented with 10% v/v heat-inactivated fetal bovine serum (FBS) (Thermo Fisher Scientific, Inc., Waltham, Mass.), and 1× penicillin-streptomycin antibiotic solution (Thermo Fisher Scientific, Inc., Waltham, Mass.). The cells were diluted to 1,000,000 cells/mL in the supplemented RPMI 1640 medium. 50 μL of either the cell suspension, for the mass spectrometry assay, or medium alone, for the cytotoxicity assay, were added to the low control wells, on the previously prepared 384-well compound plates, resulting in 50,000 cells/well or 0 cells/well respectively. IFN-γ and LPS were added to the remaining cell suspension at final concentrations of 100 ng/ml and 50 ng/ml respectively, and 50 μL of the stimulated cells were added to all remaining wells on the 384-well compound plates. The plates, with lids, were then placed in a 37° C., 5% CO2 humidified incubator for 2 days.
# Following incubation, the 384-well plates were removed from the incubator and allowed to equilibrate to room temperature for 30 minutes. For the cytotoxicity assay, CellTiter-Glo® was prepared according to the manufacturer's instructions, and 40 μL were added to each plate well. After a twenty minute incubation at room temperature, luminescence was read on an EnVision® Multilabel Reader (PerkinElmer Inc., Waltham, Mass.). For the mass spectrometry assay, 10 μL of supernatant from each well of the compound-treated plates were added to 40 μL of acetonitrile, containing 10 μM of an internal standard for normalization, in 384-well, polypropylene, V-bottom plates (Greiner Bio-One, Kremsmunster, Austria) to extract the organic analytes. Following centrifugation at 2000 rpm for 10 minutes, 10 μL from each well of the acetonitrile extraction plates were added to 90 μL of sterile, distilled H2O in 384-well, polypropylene, V-bottom plates for analysis of kynurenine and the internal standard on the RapidFire 300 (Agilent Technologies, Santa Clara, Calif.) and 4000 QTRAP MS (SCIEX, Framingham, Mass.). MS data were integrated using Agilent Technologies' RapidFire Integrator software, and data were normalized for analysis as a ratio of kynurenine to the internal standard. […]
# T1 sequence (P14902 whole entry): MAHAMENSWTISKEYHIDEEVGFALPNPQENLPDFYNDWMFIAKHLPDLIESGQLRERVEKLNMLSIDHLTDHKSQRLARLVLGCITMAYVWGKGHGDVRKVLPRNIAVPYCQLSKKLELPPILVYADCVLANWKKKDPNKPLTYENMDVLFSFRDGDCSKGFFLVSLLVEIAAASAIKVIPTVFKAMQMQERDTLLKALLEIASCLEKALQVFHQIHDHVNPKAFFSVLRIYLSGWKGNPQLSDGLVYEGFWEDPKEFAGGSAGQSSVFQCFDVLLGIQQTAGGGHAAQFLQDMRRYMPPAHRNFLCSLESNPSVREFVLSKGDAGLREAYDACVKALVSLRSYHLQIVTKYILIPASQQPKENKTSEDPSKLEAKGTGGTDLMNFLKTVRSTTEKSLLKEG
row,IC50 [nM],Structure (SMILES)
1,12.6,"COc1ccc(C(CC2CCN(C(=O)OC(C)(C)C)CC2)NC(=O)c2ccc(F)cc2)cn1 (stereo not shown) [Example 54, tert-butyl 4-(2-(4-fluorobenzamido)-2-(6-methoxypyridin-3-yl)ethyl)piperidine-1-carboxylate]"
2,12.6,"COc1ccc(C(CC2CCN(C(=O)OC(C)C)CC2)NC(=O)c2ccc(F)cc2)cn1 (stereo not shown) [Example 55, isopropyl 4-(2-(4-fluorobenzamido)-2-(6-methoxypyridin-3-yl)ethyl)piperidine-1-carboxylate]"
3,12.6,"COc1ccc(C(CC2CCN(C(=O)OCC(C)C)CC2)NC(=O)c2ccc(F)cc2)cn1 (stereo not shown) [Example 56, isobutyl 4-(2-(4-fluorobenzamido)-2-(6-methoxypyridin-3-yl)ethyl)piperidine-1-carboxylate]"
4,12.6,"CC(C)(C)OC(=O)N1CCC(CC(NC(=O)c2ccc(Br)cc2)c2ccccc2)CC1 (stereo not shown) [Example 57, tert-butyl 4-(2-(4-bromobenzamido)-2-phenylethyl)piperidine-1-carboxylate]"
5,12.6,"CC(C)(C)OC(=O)N1CCC(CC(NC(=O)c2ccc(F)s2)c2ccccc2)CC1 (stereo not shown) [Example 58, tert-butyl 4-(2-(5-fluorothiophene-2-carboxamido)-2-phenylethyl)piperidine-1-carboxylate]"
6,12.6,"Cc1ccc(C(=O)NC(CC2CCN(C(=O)OC(C)(C)C)CC2)C2CCCC2)s1 (stereo not shown) [Example 59, tert-butyl 4-(2-cyclopentyl-2-(5-methylthiophene-2-carboxamido)ethyl)piperidine-1-carboxylate]"
7,12.6,"CCc1ccc(C(=O)NC(CC(C)C)CC2CCN(C(=O)OC(C)(C)C)CC2)s1 (stereo not shown) [Example 60, tert-butyl 4-(2-(5-ethylthiophene-2-carboxamido)-4-methylpentyl)piperidine-1-carboxylate]"
8,12.6,"O=C(NC(CC1CCN(C(=O)OC2CCC2)CC1)c1ccccc1)c1ccc(Cl)cc1 (stereo not shown) [Example 61, cyclobutyl 4-(2-(4-chlorobenzamido)-2-phenylethyl)piperidine-1-carboxylate]"
9,12.6,"C#CCOC(=O)N1CCC(CC(NC(=O)c2ccc(Cl)cc2)c2ccccc2)CC1 (stereo not shown) [Example 62, prop-2-yn-1-yl 4-(2-(4-chlorobenzamido)-2-phenylethyl)piperidine-1-carboxylate]"
10,12.6,"CC(C)(C)OC(=O)N1CCC(C[C@H](NC(=O)c2ccc(Br)cc2)C2CC2)CC1 [Example 63, (S)-tert-butyl 4-(2-(4-bromobenzamido)-2-cyclopropylethyl)piperidine-1-carboxylate]"
11,12.6,"CC(C)(C)OC(=O)N1CCC(CC(NC(=O)c2ccc(Cl)s2)C2CCCCC2)CC1 (stereo not shown) [Example 64, tert-butyl 4-(2-(5-chlorothiophene-2-carboxamido)-2-cyclohexylethyl)piperidine-1-carboxylate]"
12,12.6,"CC(C)(C)OC(=O)N1CCC(C[C@H](NC(=O)c2ccc(Cl)cc2)c2ccccc2)CC1 [Example 65, (S)-tert-butyl 4-(2-(4-chlorobenzamido)-2-phenylethyl)piperidine-1-carboxylate]"
13,12.6,"CCOC(=O)N1CCC(C[C@H](NC(=O)c2ccc(CC)s2)c2ccccc2)CC1 [Example 66, (S)-ethyl 4-(2-(5-ethylthiophene-2-carboxamido)-2-phenylethyl)piperidine-1-carboxylate]"
14,12.6,"CC(C)CC(CC1CCN(C(=O)Oc2ccccc2)CC1)NC(=O)c1ccc(Cl)cc1 (stereo not shown) [Example 67, phenyl 4-(2-(4-chlorobenzamido)-4-methylpentyl)piperidine-1-carboxylate]"
15,15.8,"CC(C)(C)OC(=O)N1CCC(CC(NC(=O)c2ccc(Cl)cc2)c2ccccc2)CC1 (stereo not shown) [Example 68, tert-butyl 4-(2-(4-chlorobenzamido)-2-phenylethyl)piperidine-1-carboxylate]"
16,15.8,"Cc1ccc(C(=O)NC(CC2CCN(C(=O)OC(C)(C)C)CC2)c2ccccc2)s1 (stereo not shown) [Example 69, tert-butyl 4-(2-(5-methylthiophene-2-carboxamido)-2-phenylethyl)piperidine-1-carboxylate]"
17,15.8,"COc1ccc([C@@H](CC2CCN(C(=O)OC(C)(C)C)CC2)NC(=O)c2ccc(Cl)s2)cn1 [Example 70, (R)-tert-butyl 4-(2-(5-chlorothiophene-2-carboxamido)-2-(6-methoxypyridin-3-yl)ethyl)piperidine-1-carboxylate]"
18,15.8,"CC(C)(C)OC(=O)N1CCC(CC(NC(=O)c2ccc(Br)c(F)c2)c2ccccc2)CC1 (stereo not shown) [Example 71, tert-butyl 4-(2-(4-bromo-3-fluorobenzamido)-2-phenylethyl)piperidine-1-carboxylate]"
19,15.8,"CC(C)(C)OC(=O)N1CCC(CC(NC(=O)c2ccc(I)cc2)c2ccccc2)CC1 (stereo not shown) [Example 72, tert-butyl 4-(2-(4-iodobenzamido)-2-phenylethyl)piperidine-1-carboxylate]"
20,15.8,"CN(C)c1nnc(C(CC2CCN(C(=O)OC(C)(C)C)CC2)NC(=O)c2ccc(Cl)s2)o1 (stereo not shown) [Example 73, tert-butyl 4-(2-(5-chlorothiophene-2-carboxamido)-2-(5-(dimethylamino)-1,3,4-oxadiazol-2-yl)ethyl)piperidine-1-carboxylate]"
21,15.8,"CC(C)C(CC1CCN(C(=O)OC(C)(C)C)CC1)NC(=O)c1ccc(Br)cc1 (stereo not shown) [Example 74, tert-butyl 4-(2-(4-bromobenzamido)-3-methylbutyl)piperidine-1-carboxylate]"
22,15.8,"CC(C)CC(CC1CCN(C(=O)OC(C)(C)C)CC1)NC(=O)c1ccc(Cl)cc1 (stereo not shown) [Example 75, tert-butyl 4-(2-(4-chlorobenzamido)-4-methylpentyl)piperidine-1-carboxylate]"
23,15.8,"CC(C)CC(CC1CCN(C(=O)OC(C)(C)C)CC1)NC(=O)c1ccc(F)cc1 (stereo not shown) [Example 76, tert-butyl 4-(2-(4-fluorobenzamido)-4-methylpentyl)piperidine-1-carboxylate]"
24,15.8,"O=C(NC(CC1CCN(C(=O)OC2CC2)CC1)c1ccccc1)c1ccc(Cl)cc1 (stereo not shown) [Example 77, cyclopropyl 4-(2-(4-chlorobenzamido)-2-phenylethyl)piperidine-1-carboxylate]"
25,15.8,"CCc1ccc(C(=O)NC(CC2CCN(C(=O)OC(C)(C)C)CC2)C2CCCC2)s1 (stereo not shown) [Example 78, tert-butyl 4-(2-cyclopentyl-2-(5-ethylthiophene-2-carboxamido)ethyl)piperidine-1-carboxylate]"
26,15.8,"CC(C)CC(CC1CCN(C(=O)OC(C)(C)C)CC1)NC(=O)c1ccc(F)s1 (stereo not shown) [Example 79, tert-butyl 4-(2-(5-fluorothiophene-2-carboxamido)-4-methylpentyl)piperidine-1-carboxylate]"
27,15.8,"Cc1ccc(C(=O)NC(CC2CCN(C(=O)OC(C)(C)C)CC2)C2CCCCC2)s1 (stereo not shown) [Example 80, tert-butyl 4-(2-cyclohexyl-2-(5-methylthiophene-2-carboxamido)ethyl)piperidine-1-carboxylate]"
28,15.8,"CCOC(=O)N1CCC(C[C@H](NC(=O)c2ccc(Cl)cc2)c2ccccc2)CC1 [Example 81, (S)-ethyl 4-(2-(4-chlorobenzamido)-2-phenylethyl)piperidine-1-carboxylate]"
